In ChEMBL document CHEMBL1201862, “PubChem BioAssay data set” (2004):
The source made the active and inactive calls.

Experiments:
[1] = inhibitors of intracellular T. cruzi replication, confirmation, NIH3T3 host cells, beta-gal luminescence (AID 2044); format: functional, cell-based;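 further: intracellular parasites grown in NIH/3T3 mouse fibroblasts as host cells; luminescent beta-galactosidase reporter signal from transgenic T. cruzi replicating inside host cells; inhibitors lower the luminescence signal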
[2] = microbe, parasite or virus in culture; format: functional; conditions: Mycobacterium tuberculosis
[3] = cytotoxicity toward NIH3T3 fibroblasts, dose response, counter-screen, cell-based, ATP luminescence, mouse fibroblasts (AID 2010); format: functional;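 further: cells exposed to compound for about 90 hours before reading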
[4] = target: T1, Replicative DNA helicase DnaB (Mycobacterium tuberculosis, UniProt P9WMR3); experiment: DnaB intein splicing inhibitors, dose response, biochemical, cell-free fluorescence (AID 449749); format: functional
T1 sequence (P9WMR3 whole entry): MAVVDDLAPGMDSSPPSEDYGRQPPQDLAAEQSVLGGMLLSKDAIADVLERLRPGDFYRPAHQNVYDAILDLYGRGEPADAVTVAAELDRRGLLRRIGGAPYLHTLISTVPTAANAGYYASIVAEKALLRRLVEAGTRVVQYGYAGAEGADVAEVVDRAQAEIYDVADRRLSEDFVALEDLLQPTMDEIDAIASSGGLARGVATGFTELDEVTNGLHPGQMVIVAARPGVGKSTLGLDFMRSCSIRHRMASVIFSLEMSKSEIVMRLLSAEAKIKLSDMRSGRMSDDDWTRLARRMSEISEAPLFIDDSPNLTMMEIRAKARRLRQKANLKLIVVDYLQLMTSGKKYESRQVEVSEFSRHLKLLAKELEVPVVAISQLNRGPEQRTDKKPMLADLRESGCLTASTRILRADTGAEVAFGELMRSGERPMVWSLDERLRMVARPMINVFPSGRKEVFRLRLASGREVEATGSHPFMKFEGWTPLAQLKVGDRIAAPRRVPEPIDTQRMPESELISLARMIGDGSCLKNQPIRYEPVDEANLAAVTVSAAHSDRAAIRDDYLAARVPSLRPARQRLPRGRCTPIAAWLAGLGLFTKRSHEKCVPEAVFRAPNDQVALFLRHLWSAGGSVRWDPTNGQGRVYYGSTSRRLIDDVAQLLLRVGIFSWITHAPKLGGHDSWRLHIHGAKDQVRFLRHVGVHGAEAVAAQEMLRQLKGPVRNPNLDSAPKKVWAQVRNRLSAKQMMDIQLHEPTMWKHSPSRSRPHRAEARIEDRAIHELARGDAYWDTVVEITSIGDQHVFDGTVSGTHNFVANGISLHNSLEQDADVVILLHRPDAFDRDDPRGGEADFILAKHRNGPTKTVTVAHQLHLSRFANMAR

[5] = target: T2, Protein RecA (Mycobacterium tuberculosis, UniProt P9WHJ3); experiment: Fluorescence Cell-Free Homogeneous Dose Retest to Identify Inhibitors of RecA-Intein Splicing Activity. [Related pubchem assays (depositor defined):AID2097, AID2223, AID489010, AID492950]; format: functional
T2 sequence (P9WHJ3 whole entry): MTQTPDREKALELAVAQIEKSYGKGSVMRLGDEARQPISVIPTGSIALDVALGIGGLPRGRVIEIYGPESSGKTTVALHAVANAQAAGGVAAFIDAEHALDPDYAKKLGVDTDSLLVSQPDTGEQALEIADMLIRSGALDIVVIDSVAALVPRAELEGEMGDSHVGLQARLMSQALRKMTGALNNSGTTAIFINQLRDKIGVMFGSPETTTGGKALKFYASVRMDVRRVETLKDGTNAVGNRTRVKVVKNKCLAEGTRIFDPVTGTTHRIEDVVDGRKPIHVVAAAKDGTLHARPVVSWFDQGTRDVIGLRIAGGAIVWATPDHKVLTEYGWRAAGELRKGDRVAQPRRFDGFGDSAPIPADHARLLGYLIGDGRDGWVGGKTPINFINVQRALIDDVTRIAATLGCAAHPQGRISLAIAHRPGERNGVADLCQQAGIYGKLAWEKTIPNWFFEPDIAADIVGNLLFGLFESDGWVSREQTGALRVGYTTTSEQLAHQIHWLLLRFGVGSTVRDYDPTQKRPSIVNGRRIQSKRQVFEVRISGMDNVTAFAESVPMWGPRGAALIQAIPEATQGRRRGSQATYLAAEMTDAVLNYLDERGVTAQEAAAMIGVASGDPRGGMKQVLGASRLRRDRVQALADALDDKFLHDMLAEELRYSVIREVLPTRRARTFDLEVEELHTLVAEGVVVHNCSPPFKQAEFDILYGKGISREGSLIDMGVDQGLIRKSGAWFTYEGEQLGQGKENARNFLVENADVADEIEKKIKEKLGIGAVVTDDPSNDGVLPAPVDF

[6] = target: T3, Polyadenylate-binding protein 1 (Homo sapiens, UniProt P11940); experiment: PABP1 MLLE–PAM2 interaction inhibitors, dose response, miRNA deadenylation inhibitor project, biochemical, fluorescence polarization, Cy5-PAM2 peptide, secondary (AID 602260); format: functional; conditions: read-out: IC50_Mean
T3 sequence (P11940 whole entry): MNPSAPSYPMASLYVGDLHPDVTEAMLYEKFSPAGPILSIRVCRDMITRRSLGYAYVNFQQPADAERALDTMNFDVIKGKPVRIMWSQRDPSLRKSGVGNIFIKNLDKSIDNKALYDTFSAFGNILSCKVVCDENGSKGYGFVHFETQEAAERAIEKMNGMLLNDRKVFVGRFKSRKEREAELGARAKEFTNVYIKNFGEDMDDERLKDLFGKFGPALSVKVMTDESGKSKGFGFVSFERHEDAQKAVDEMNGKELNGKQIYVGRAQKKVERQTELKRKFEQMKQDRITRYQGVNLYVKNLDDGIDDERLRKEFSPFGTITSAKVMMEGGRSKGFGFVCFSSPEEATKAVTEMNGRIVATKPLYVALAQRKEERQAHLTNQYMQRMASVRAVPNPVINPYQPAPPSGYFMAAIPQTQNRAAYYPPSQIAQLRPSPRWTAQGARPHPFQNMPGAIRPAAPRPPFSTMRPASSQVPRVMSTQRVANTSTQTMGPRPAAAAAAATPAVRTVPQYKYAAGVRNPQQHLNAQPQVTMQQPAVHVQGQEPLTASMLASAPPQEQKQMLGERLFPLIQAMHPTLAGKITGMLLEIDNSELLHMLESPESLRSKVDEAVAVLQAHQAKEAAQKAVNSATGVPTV

[7] = target: Mitochondrial peptide methionine sulfoxide reductase (Bos taurus, UniProt P54149); experiment: Absorbance-based biochemical high throughput dose response assay for activators of Methionine sulfoxide reductase A (MsrA).; format: functional
Sequence of Mitochondrial peptide methionine sulfoxide reductase (P54149 whole entry): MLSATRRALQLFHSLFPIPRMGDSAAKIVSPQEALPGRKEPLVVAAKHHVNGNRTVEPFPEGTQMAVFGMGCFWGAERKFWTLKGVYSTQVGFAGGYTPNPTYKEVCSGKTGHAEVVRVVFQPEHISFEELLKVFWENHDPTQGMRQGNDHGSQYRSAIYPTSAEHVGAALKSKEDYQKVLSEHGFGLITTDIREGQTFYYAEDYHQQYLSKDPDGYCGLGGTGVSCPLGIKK

[8] = target: T3, Polyadenylate-binding protein 1; experiment: PABP1 MLLE–PAM2 binding inhibitor potency, dose response, biochemical, fluorescence polarization, FITC-PAM2 peptide (AID 602259); format: functional; conditions: read-out: IC50_Mean
[9] = AlphaScreen signal interference compounds, dose response, artefact control for ARNT-TACC3 interaction inhibitor project, biochemical, luminescence, cherry-pick (AID 651705); format: functional;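 further: AlphaScreen bead proximity signal that flags compounds interfering with the detection technology; potency reflects signal decrease which marks the compound as an assay artifact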
[10] = target: Matrix metalloproteinase-14 (Homo sapiens, UniProt P50281); experiment: Dose Response confirmation of uHTS hits for a small molecule inhibitors of MT1-MMP activation in a fluorescence assay set 1.; format: functional
[11] = target: Caspase-6 (Homo sapiens, UniProt P55212); experiment: human caspase-6 inhibitors, dose response, biochemical, VEID-R110 fluorescence, cherry-pick (AID 720632)
Sequence of Caspase-6 (P55212 24-179 limits assumed): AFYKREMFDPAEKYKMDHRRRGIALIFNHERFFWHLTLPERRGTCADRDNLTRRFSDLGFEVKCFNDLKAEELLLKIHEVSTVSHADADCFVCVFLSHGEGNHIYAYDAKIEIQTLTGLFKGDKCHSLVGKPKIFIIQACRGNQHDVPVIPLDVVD
Sequence of Caspase-6 (P55212 194-293 limits assumed): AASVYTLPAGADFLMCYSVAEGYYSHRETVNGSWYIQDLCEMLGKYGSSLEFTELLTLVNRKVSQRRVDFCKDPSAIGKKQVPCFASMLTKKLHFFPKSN

[12] = target: E3 ubiquitin-protein ligase UHRF1 (Homo sapiens, UniProt Q96T88); experiment: Counterscreen for inhibitors of 5-meCpG-binding domain protein 2 (MBD2): TRFRET-based biochemical high throughput dose response assay to identify inhibitors of binding of ubiquitin-like with PHD and ring finger domains 1 (UHRF1) to methylated oligonucleotide.
[13] = target: T4, Tyrosyl-DNA phosphodiesterase 2 (Homo sapiens, UniProt O95551); experiment: human TDP2 enzyme inhibitors, dose response, biochemical, epi absorbance, IC50 (AID 743297)
T4 sequence (O95551 whole entry): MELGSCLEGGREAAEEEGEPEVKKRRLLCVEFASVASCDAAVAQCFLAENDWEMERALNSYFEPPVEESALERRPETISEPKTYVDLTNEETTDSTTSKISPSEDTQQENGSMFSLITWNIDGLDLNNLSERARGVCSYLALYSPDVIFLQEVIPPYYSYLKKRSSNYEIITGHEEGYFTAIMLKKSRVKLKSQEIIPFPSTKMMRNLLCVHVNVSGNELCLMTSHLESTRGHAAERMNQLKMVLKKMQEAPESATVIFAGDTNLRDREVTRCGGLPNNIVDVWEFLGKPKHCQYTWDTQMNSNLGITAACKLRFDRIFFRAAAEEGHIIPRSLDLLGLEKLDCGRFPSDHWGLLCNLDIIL

[14] = target: T5, Endoplasmic reticulum aminopeptidase 1 (Homo sapiens, UniProt Q9NZ08); experiment: ERAP1 aminopeptidase inhibitors, dose response, biochemical, cherry-pick, set 2, plate reader (AID 743314)
T5 sequence (Q9NZ08 whole entry): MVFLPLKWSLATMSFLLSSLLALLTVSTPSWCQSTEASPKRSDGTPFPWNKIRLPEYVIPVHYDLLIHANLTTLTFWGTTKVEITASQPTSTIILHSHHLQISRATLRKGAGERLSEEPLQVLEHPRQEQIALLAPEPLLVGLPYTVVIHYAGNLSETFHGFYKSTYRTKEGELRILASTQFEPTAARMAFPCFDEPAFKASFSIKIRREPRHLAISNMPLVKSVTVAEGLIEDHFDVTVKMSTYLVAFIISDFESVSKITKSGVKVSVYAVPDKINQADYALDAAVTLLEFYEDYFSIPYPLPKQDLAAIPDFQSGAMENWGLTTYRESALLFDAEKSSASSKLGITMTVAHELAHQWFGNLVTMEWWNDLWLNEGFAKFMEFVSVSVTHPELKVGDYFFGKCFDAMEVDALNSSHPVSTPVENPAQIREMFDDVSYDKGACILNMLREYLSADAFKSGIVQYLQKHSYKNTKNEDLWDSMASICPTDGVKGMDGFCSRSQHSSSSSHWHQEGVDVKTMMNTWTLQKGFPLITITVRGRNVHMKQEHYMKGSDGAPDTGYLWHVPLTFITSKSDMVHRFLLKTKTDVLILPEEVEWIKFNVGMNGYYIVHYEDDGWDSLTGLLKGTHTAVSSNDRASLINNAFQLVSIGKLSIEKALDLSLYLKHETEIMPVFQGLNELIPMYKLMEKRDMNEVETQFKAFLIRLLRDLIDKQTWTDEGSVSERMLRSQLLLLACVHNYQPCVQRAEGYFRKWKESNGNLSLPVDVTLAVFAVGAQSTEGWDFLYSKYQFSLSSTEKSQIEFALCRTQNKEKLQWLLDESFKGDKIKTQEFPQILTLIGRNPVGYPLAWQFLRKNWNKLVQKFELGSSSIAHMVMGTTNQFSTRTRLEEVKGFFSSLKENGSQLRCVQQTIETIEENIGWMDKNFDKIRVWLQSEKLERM

[15] = target: T5, Endoplasmic reticulum aminopeptidase 1; experiment: ERAP1 enzyme inhibitors, dose response, biochemical, fluorescence plate reader, dry powder (AID 1117292); format: functional
[16] = target: Genome polyprotein (dengue virus type 2, UniProt P29990); experiment: Dengue-2 NS5 methyltransferase inhibitors, primary screen, biochemical, confirmation dose response (AID 588689); format: functional
Sequence of Genome polyprotein (P29990 2492-3391 limits assumed): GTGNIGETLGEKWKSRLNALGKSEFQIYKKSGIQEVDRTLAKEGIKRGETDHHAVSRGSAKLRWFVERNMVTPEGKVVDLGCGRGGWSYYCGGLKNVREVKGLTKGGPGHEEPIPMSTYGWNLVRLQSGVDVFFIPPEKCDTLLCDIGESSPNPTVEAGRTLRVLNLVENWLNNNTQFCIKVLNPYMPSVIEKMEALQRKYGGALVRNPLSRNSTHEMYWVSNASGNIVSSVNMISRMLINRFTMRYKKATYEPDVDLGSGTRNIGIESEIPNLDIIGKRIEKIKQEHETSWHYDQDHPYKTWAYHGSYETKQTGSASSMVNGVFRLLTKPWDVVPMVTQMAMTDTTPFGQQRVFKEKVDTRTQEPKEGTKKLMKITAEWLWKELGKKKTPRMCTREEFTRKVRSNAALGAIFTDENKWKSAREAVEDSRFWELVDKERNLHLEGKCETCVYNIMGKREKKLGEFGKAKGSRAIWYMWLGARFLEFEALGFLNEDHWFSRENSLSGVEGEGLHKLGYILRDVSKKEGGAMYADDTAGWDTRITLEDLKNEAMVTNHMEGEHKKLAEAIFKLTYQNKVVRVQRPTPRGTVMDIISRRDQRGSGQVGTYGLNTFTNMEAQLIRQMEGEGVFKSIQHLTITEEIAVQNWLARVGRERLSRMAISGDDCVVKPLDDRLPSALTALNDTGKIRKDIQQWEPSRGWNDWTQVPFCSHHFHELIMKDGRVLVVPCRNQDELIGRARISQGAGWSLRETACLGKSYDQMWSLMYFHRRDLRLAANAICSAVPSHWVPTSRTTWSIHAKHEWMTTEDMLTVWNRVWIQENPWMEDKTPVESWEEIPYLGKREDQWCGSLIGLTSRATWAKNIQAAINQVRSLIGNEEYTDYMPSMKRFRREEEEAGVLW

[17] = target: T6, Rac GTPase-activating protein 1 (Homo sapiens, UniProt Q9H0H5); experiment: MgcRacGAP GTPase-activating activity inhibitors, confirmation, biochemical, ADP Hunter fluorescence, primary and confirmatory (AID 624330); format: functional
T6 sequence (Q9H0H5 whole entry): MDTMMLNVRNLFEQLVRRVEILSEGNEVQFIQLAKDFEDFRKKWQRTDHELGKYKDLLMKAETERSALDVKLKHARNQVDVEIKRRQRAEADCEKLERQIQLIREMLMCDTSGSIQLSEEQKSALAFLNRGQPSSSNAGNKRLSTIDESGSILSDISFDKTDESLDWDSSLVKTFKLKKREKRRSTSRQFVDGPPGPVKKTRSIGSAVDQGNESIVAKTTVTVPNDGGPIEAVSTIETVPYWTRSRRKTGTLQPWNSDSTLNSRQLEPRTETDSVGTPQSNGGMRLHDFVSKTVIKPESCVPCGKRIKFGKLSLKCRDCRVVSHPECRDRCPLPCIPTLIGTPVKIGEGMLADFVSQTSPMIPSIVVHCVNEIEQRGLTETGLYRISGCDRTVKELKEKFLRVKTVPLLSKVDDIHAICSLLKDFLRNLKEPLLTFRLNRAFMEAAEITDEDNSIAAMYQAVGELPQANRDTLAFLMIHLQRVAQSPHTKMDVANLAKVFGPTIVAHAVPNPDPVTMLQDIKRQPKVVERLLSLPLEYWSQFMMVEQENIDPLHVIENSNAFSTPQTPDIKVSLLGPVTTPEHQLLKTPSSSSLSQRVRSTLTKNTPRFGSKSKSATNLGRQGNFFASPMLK

[18] = target: 1-phosphatidylinositol 4,5-bisphosphate phosphodiesterase gamma-1 (Homo sapiens, UniProt P19174); experiment: Counterscreen for inhibitors of phospholipase C isozymes (PLC-B3): Fluorescence-based biochemical high throughput dose response assay to identify inhibitors of phospholipase C isozymes (PLC-gamma1).
[19] = target: 1-phosphatidylinositol 4,5-bisphosphate phosphodiesterase beta-3 (Homo sapiens, UniProt Q01970); experiment: Fluorescence-based biochemical high throughput dose response assay to identify inhibitors of phospholipase C isozymes (PLC-B3).
Sequence of 1-phosphatidylinositol 4,5-bisphosphate phosphodiesterase beta-3 (Q01970 whole entry): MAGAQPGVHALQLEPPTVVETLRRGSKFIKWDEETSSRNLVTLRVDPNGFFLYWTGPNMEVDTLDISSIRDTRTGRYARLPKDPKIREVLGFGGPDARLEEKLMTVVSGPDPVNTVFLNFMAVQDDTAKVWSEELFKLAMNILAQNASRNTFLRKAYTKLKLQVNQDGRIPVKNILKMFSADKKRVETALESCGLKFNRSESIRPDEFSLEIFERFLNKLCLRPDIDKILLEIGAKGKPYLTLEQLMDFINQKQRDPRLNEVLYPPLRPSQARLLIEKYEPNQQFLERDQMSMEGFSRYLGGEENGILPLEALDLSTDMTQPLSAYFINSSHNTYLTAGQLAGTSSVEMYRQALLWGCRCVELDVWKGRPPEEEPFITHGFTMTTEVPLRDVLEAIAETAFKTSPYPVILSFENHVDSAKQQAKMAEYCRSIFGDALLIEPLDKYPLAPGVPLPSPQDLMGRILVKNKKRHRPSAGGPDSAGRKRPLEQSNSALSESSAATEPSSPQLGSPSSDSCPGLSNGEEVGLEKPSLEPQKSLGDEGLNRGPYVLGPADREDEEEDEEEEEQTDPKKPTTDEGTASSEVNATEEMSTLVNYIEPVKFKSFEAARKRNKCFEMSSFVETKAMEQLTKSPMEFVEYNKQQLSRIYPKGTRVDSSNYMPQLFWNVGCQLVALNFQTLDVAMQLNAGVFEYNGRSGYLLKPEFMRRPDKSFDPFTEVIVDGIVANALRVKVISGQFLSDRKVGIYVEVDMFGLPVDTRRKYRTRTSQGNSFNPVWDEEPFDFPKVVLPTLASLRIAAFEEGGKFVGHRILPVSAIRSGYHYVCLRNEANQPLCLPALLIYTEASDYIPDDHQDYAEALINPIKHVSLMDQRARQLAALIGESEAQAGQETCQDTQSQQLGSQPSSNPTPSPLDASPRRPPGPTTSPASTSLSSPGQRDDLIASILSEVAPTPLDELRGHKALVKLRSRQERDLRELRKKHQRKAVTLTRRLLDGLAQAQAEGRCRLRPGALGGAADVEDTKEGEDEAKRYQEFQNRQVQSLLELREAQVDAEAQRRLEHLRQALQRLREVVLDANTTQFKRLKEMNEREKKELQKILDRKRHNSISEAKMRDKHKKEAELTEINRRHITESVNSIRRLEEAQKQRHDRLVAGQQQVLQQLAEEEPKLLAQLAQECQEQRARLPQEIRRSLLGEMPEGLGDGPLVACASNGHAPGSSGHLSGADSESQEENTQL

[20] = target: Glutathione-S-transferase (Schistosoma japonicum, UniProt Q26513); experiment: biotin-GST/anti-GST TR-FRET signal inhibitors, dose response, artefact control for Vif-APOBEC3G degradation inhibitor project, biochemical (AID 1117362); format: functional
Sequence of Glutathione-S-transferase (Q26513 whole entry): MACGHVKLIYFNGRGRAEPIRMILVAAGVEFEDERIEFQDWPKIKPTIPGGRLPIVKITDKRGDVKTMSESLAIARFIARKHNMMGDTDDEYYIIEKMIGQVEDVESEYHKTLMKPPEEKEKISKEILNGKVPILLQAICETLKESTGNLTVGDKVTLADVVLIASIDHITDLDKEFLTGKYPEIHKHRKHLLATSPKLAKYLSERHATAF

Structure (SMILES): CNc1ccc2nc3ccccc3[n+](C)c2c1.[O-][Cl+3]([O-])([O-])[O-]
- EC50 [1]: 0.689 µM (active)
- CC50 [2]: 18.3 µM (active)
- EC50 [3]: > 60 µM (not active)
- AC50 [4]: > 380 µM (inactive)
- EC50 [5]: 2.37 µM (active)
- IC50 [6]: 35.1 µM (inactive)
- EC50 [7]: 2.13 µM (active)
- IC50 [8]: 18 µM (active)
- AC50 [9]: 133 µM (active)
- IC50 [10]: 14 µM (active)
- AC50 [11]: 2.79 µM (active)
- IC50 [12]: > 43.8 µM (inactive)
- IC50 [13]: > 128 µM (inactive)

Structure (SMILES): N=C(NCCc1c[nH]c2ccccc12)NS(=O)(=O)c1cc(F)ccc1F
- AC50 [14]: 6.09 µM (active)
- AC50 [15]: 59.9 µM (active)

Structure (SMILES): O=C(O)c1cccc2cccc(-c3c4ccc(=O)c(O)c-4oc4c(O)c(O)ccc34)c12
- IC50 [16]: 14.6 µM (active)
- IC50 [17]: 13.3 µM (active)
- IC50 [18]: > 122 µM (inactive)
- IC50 [19]: > 122 µM (inactive)
- IC50 [20]: > 100 µM (active)
